The target of test [1] is T1, TARC binding to Hut78 cells (Homo sapiens, UniProt P51679).
T1 construct: host or cells: Hut78 cells (whole cells)
T1 sequence (P51679 1-360): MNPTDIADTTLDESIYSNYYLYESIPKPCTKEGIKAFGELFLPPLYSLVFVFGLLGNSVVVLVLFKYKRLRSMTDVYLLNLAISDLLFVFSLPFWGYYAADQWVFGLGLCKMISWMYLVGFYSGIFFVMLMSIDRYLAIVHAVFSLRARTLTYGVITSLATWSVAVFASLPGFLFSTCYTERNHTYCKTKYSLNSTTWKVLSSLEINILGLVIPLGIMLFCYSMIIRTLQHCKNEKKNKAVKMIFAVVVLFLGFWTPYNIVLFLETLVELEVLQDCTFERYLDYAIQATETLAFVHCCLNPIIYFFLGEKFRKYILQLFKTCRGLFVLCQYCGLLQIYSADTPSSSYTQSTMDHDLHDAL
Description: Inhibitory activity on binding of [125I]-TARC to Hut78 cells. Conditions: for inhibition at 1 µM: read-out: The Binding Inhibitory Rates at 1 μmol/L (%). The protocol: Inhibitory Activity on Binding of [^125I]-TARC to Hut78 Cells
The RPMI-1640 medium (Sigma-Aldrich Japan) containing 20 mmol/L HEPES [4-(2-hydroxyethyl)-1-piperazinylethanesulfonic acid; HEPES, Nacalai Tesque, Inc.] and 0.1 w/v % bovine serum albumin (SEIKAGAKU CORPORATION) was adjusted to pH 7.0 with sodium hydrogencarbonate (Wako Pure Chemical Industries, Ltd.) to yield a binding/wash buffer. In a 96-well round-bottomed plate (Corning Costar Corporation) were placed 60 μL of a suspension of Hut78 cells (ATCC No. TIB-161) (3×10^5 cells) in the binding/wash buffer, 20 μL of a solution of a test compound and 20 μL of a solution of 810 Bq of [^125I]-TARC (Amersham Biosciences K.K.) diluted with the binding/wash buffer up to the total aliquot of 100 μL, followed by reaction at room temperature for two hours. The solution of the test compound had been prepared by dissolving the test compound in dimethyl sulfoxide (Nacalai Tesque, Inc.) to a concentration of 10 mmol/L, and diluting the solution with the binding/wash buffer to a series of concentrations. The nonspecific binding was determined by a binding assay in the presence of a sufficient amount of unlabeled TARC. The total binding was defined as a binding in the case where dimethyl sulfoxide (Nacalai Tesque, Inc.) was added, instead of the test compound, in the same concentration (0.1 v/v %). After binding [^125I]-TARC to Hut78 cells, 50 μL of a polyethyleneimine solution (Nacalai Tesque, Inc.) diluted to 0.3 w/v % with the binding/wash buffer was added each of wells of a glass filter (Unifilter GF/B96, Packard BioScience Company), was rapidly filtrated using Filtermate 196 (Packard BioScience Company) and washed with the binding/wash buffer at 4° C. to thereby separate the radioactive ligand which is not bound to the cells. Microscinti 20 (Packard BioScience Company) was placed in each well at 50 μL/well, and the radioactivity on the glass filter was determined using Topcount NXT™ (Packard BioScience Company). The binding inhibitory rates (%) of the test compounds were determined by calculation according to the following equation: [formula] Total binding: [^125I]-TARC binding radioactivity without addition of the test compound Binding upon addition of test compound: [^125I]-TARC binding radioactivity at respective concentration upon addition of test compound
Nonspecific binding: [^125I]-TARC binding radioactivity upon addition of unlabeled TARC

For test [2], the system named is CD4-positive T cells and eosinophils in the bronchoalveolar lavage fluid. Description: Inhibitory activities on antigen-induced cellular infiltration (ovalbumin-sensitized mice, bronchoalveolar lavage fluid). In kind it is in vivo, BALB/c mice. The protocol: Inhibitory Activities on Antigen-Induced Cellular Infiltration and Cytokine Production
BALB/c mice were sensitized by intraperitoneally administrating 50 μg of ovalbumin (Sigma-Aldrich Japan) and 1 mg of aluminum hydroxide (Wako Pure Chemical Industries, Ltd.) and further sensitized in the same manner on the 7th day from the first sensitization (0 day). From on the 23rd day, the mice were allowed to inhale a 1% ovalbumin physiological saline solution [prepared by dissolving ovalbumin in physiological saline (Otsuka Pharmaceutical Co., Ltd.) to a concentration 1%] using Supersonic Nebulizer NE-U 12 (OMRON Corporation) for 30 minutes once per 2 days (antigen nebulization). DMSO (Kanto Kagaku), Tween 80 (Wako Pure Chemical Industries), and 10 mmol/L acetic acid buffer containing 0.9% sodium chloride were mixed at a ratio of 5 to 5 to 90, whereby a liquid (an administration solvent) was prepared. Each test compound was dissolved in the administration solvent, whereby a solution for subcutaneous administration was prepared. The mice were grouped into test compound-administered groups and a control group. The test compound was subcutaneously administered to the mice of each of the test compound-administered groups at a dose of 30 mg/kg and the administration solvent was subcutaneously administered to the mice of the control group 30 minutes prior to the fourth antigen nebulization and after 4 hours from the fourth antigen nebulization. 8 hours after the fourth antigen nebulization, the bronchoalveolar lavage of each mouse was performed to obtain a bronchoalveolar lavage fluid. The number of CD4-positive T cells and eosinophils in the bronchoalveolar lavage fluid were counted. 10 mice were subjected to the each group in the test.

The mark [3] stands for this setting: test compound 1 μmol/L, [125I]-TARC, Hut78 cells, room temperature, two hours.

Like-named read-outs stand apart in the source and are kept apart here.

`C=CC[N+]1(C2CCN(c3ncc(-c4ccc(F)cc4F)c(NCc4ccc(F)cc4F)n3)CC2)CCCCC1.[Br-]` [Compound 75, 2-[4-(1-allylpiperidinio)piperidino]-4-(2,4-difluorobenzylamino)-5-(2,4-difluorophenyl)pyrimidine bromide]: the “The Binding Inhibitory Rates at 1 μmol/L (%)” value in test [1] (setting [3]) is reported as 97%.
With `NC(=O)C1CCCN(C2CCN(c3ncc(-c4ccc(F)cc4F)c(NCc4ccc(F)cc4F)n3)CC2)C1` (centres unmarked) [Compound 8, 2-[4-(3-carbamoylpiperidino)piperidino]-4-(2,4-difluorobenzylamino)-5-(2,4-difluorophenyl)pyrimidine], the inhibition at 1 µM in test [1] (setting [3]) came out at 92%. Further, in test [2] (30 mg/kg subcutaneously 30 minutes prior to and 4 hours after fourth antigen nebulization, lavage 8 hours after, mean±standard error, control (1.5±0.1)×10^5), the “number of eosinophils in a bronchoalveolar lavage fluid obtained from each mouse” value is recorded as “(0.6±0.1)×10^5”. Moreover, in test [2] (30 mg/kg subcutaneously 30 minutes prior to and 4 hours after fourth antigen nebulization, lavage 8 hours after, mean±standard error, control (1.9±0.2)×10^4), the “number of CD4-positive T cells in a bronchoalveolar lavage fluid obtained from each mouse” value is on record as “(0.6±0.1)×10^4”. In test [2] (30 mg/kg subcutaneously, bronchoalveolar lavage fluid, P<0.0001, Aspin-Welch test), the “number of CD4-positive T cells less than that of the control group” value is given as 68%. Besides, in test [2] (30 mg/kg subcutaneously, bronchoalveolar lavage fluid, P<0.0001, Student's test), the “number of eosinophils less than that of the control group” value is reported as 57%.
As for `Fc1ccc(-c2cnc(N3CCC(N4CCCCC4)CC3)nc2NCc2c(F)cccc2Cl)c(F)c1` [Compound 61, 4-(2-chloro-6-fluorobenzylamino)-5-(2,4-difluorophenyl)-2-(4-piperidinopiperidino)pyrimidine], the inhibition at 1 µM in test [1] (setting [3]) turned out to be 82%.
As for `CC1CCCN(C2CCN(c3ncc(-c4ccc(F)cc4F)c(NCc4c(F)cccc4F)n3)CC2)C1` (centres unmarked) [Compound 15, 4-(2,6-difluorobenzylamino)-5-(2,4-difluorophenyl)-2-[4-(3-methylpiperidino)piperidino]pyrimidine], the inhibition at 1 µM in test [1] is 90%.
For `Fc1ccc(-c2cnc(N3CCC(N4CCCCC4)CC3)nc2NCc2c(F)cccc2F)c(F)c1` [Compound 40, 4-(2,6-difluorobenzylamino)-5-(2,4-difluorophenyl)-2-(4-piperidinopiperidino)pyrimidine], the inhibition at 1 µM in test [1] (setting [3]) turned out to be 89%.
With `CC1CCCCN1C1CCN(c2ncc(-c3ccc(F)cc3F)c(NCc3ccc(F)cc3F)n2)CC1` (centres unmarked) [Compound 3, 4-(2,4-difluorobenzylamino)-5-(2,4-difluorophenyl)-2-[4-(2-methylpiperidino)piperidino]pyrimidine], the inhibition at 1 µM in test [1] amounted to 93%.
Consider “4-(2,4-difluorobenzylamino)-5-(2,4-difluorophenyl)-2-[4-(1-methylpiperidinio)piperidino]pyrimidine iodide [Compound 72]”, for which the “The Binding Inhibitory Rates at 1 μmol/L (%)” value in test [1] (setting [3]) is listed as 96%.
`CC[N+]1(C2CCN(c3ncc(-c4ccc(F)cc4F)c(NCc4ccc(F)cc4F)n3)CC2)CCCCC1.[I-]` [Compound 73, 4-(2,4-difluorobenzylamino)-5-(2,4-difluorophenyl)-2-[4-(1-ethylpiperidinio)piperidino]pyrimidine iodide]: in test [1] (setting [3]), the “The Binding Inhibitory Rates at 1 μmol/L (%)” value was 99%.
Take `Fc1ccc(-c2cnc(N3CCC(N4CCCCC4)CC3)nc2NCc2ccc(Cl)cc2F)c(F)c1` [Compound 58, 4-(4-chloro-2-fluorobenzylamino)-5-(2,4-difluorophenyl)-2-(4-piperidinopiperidino)pyrimidine]: in test [1] (setting [3]), the inhibition at 1 µM was determined as 81%.
As for `CC1CCCN(C2CCN(c3ncc(-c4ccc(F)cc4F)c(NCc4ccc(F)cc4F)n3)CC2)C1` (centres unmarked) [Compound 1, 4-(2,4-difluorobenzylamino)-5-(2,4-difluorophenyl)-2-[4-(3-methylpiperidino)piperidino]pyrimidine], in test [1], the inhibition at 1 µM worked out at 91%.
